Where two headings read alike, the source gives them in different places.
What was measured:
[1] = target: T1, cloned human 5-HT1A receptors (Homo sapiens, UniProt P08908); assay: Inhibition of 3H-5-CT binding to human 5-HT1A receptors
T1 construct: expressed in transfected cells; host or cells: HeLa cells (HA7), stably transfected; cell homogenate
T1 sequence (P08908 1-422): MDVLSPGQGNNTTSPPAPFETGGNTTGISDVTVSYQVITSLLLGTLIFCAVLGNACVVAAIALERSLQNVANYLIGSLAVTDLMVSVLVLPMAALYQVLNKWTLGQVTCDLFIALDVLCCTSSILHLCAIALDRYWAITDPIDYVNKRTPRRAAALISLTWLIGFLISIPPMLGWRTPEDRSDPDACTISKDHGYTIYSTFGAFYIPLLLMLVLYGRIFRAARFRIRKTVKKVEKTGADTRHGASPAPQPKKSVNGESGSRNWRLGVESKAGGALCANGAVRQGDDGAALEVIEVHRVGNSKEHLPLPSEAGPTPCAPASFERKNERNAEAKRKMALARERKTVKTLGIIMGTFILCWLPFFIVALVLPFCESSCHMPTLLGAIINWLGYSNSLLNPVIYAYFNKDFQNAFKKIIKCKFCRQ
Experimental: Inhibition of ^3H-5CT Binding to Human 5-HT1A Receptors
Human 5-HT1A receptors (40 μg of cell homogenate) were incubated for 15 minutes at 37° C. in 50 mM Tris buffer at pH 7.7 in the presence of ^3H-5-CT. Non-specific binding was determined by including 10 μM of metergoline. The reaction was terminated by rapid filtration through Unifilter GF/B filters on a Tomtec Cell Harvester. Filters were counted in a Packard Top Counter.

[2] = system: serotonin reuptake (3H-5-HT uptake into whole rat brain synaptosomes); assay: Inhibition of 3H-5-HT uptake into rat brain synaptosomes; format: biochemical
Experimental: Inhibition of ^3H-5HT Uptake Into Rat Brain Synaptosomes
Using this method, the ability of drugs to inhibit the accumulation of ^3H-5-HT into whole rat brain synaptosomes is determined in vitro.

[3] = cloned human 5-HT1A receptors expressed in HeLa cells (HA7)

| Structure (SMILES) | IC50 [1, 3] [nM] | IC50 [2] [nM] | Inhibition of serotonin reuptake % inhibition at 100 nM [2] [% inh. at 100 nM] | IC50 [1] [nM] |
| --- | --- | --- | --- | --- |
| N#Cc1ccc2c(c1)COC2(CCCN1CCN(c2ccc3[nH]ccc3c2)CC1)c1ccc(F)cc1 (stereo not shown) [Compound 2n, 1-[3-[4-(1H-Indol-5-yl)piperazinyl]propyl]-1-(4-fluorophenyl)-1,3-dihydroisobenzofuran-5-carbonitrile] | 15 | – | – | – |
| Cc1ccc2[nH]cc(CCCN(C)CCCC3(c4ccc(F)cc4)OCc4cc(F)ccc43)c2c1 (stereo not shown) [Compound 12c, 5-Fluoro-1-[3-[[3-(5-methyl-1H-indol-3-yl)propyl]methylamino]propyl]-1-(4-fluorophenyl)-1,3-dihydroisobenzofuran] | 19 | 17 | – | – |
| C=CCN(CCCOc1cccc(OC)c1)CCCC1(c2ccc(F)cc2)OCc2cc(C#N)ccc21 (stereo not shown) [Compound 4p] | 19 | – | 6 | – |
| N#Cc1ccc2c(c1)COC2(CCCN(CCCc1c[nH]c2ccccc12)CCOc1ccccc1)c1ccc(F)cc1 (stereo not shown) [Compound 13p, 1-[3-[[3-(1H-Indol-3-yl)propyl](2-phenoxyethyl)amino]propyl]-1-(4-fluorophenyl)-1,3-dihydroisobenzofuran-5-carbonitrile] | 23 | – | – | – |
| CCN(CCCc1c[nH]c2ccc(I)cc12)CCCC1(c2ccc(F)cc2)OCc2cc(C#N)ccc21 (stereo not shown) [Compound 12af, 1-[3-[Ethyl[3-(5-iodo-1H-indol-3-yl)propyl]amino]propyl]-1-(4-fluorophenyl)-1,3-dihydroisobenzofuran-5-carbonitrile] | 31 | – | 38 | – |
| CN(CCCc1c[nH]c2ccccc12)CCCC1(c2ccccc2)OCc2ccccc21 (stereo not shown) [Compound 2g, 1-[3-[[3-(1H-Indol-3-yl)propyl]methylamino]propyl]-1-phenyl-1,3-dihydroisobenzofuran] | 40 | 20 | – | – |
| C=CCN(CCCC1(c2ccc(F)cc2)OCc2cc(C#N)ccc21)CCc1ccccc1OC (stereo not shown) [Compound 4d, 1-(4-Fluorophenyl)-1-[3-[[2-(2-methoxyphenyl)ethyl](prop-2-en-1-yl)amino]propyl]-1,3-dihydroisobenzofuran-5-carbonitrile] | 4.5 | – | 7 | – |
| C=CCN(CCCc1c[nH]c2ccc(F)cc12)CCCC1(c2ccc(F)cc2)OCc2cc(C#N)ccc21 (stereo not shown) [Compound 13d, 1-[3-[[3-(5-Fluoro-1H-indol-3-yl)propyl](prop-2-en-1-yl)amino]propyl]-1-(4-fluorophenyl)-1,3-dihydroisobenzofuran-5-carbonitrile] | 15 | 21 | – | – |
| C=CCN(CCCC1(c2ccc(F)cc2)OCc2cc(C#N)ccc21)CCc1cccc(OC)c1 (stereo not shown) [Compound 4c, 1-(4-Fluorophenyl)-1-[3-[[2-(3-methoxyphenyl)ethyl](prop-2-en-1-yl)amino]propyl]-1,3-dihydroisobenzofuran-5-carbonitrile] | 11 | – | 4 | – |
| N#Cc1ccc2c(c1)COC2(CCCN1CCN(c2cccc3[nH]ccc23)CC1)c1ccc(F)cc1 (stereo not shown) [Compound 2m, 1-[3-[4-(1H-Indol-4-yl)piperazinyl]propyl]-1-(4fluorophenyl)-1,3-dihydroisobenzofuran-5carbonitrile] | 4.7 | – | – | – |
| COc1ccccc1OCCN(C)CCCC1(c2ccc(F)cc2)OCc2cc(C#N)ccc21 (stereo not shown) [Compound 2b, 1-(4-Fluorophenyl)-1-[3-[[2-(2-methoxyphenoxy)ethyl]methylamino]propyl]-1,3-dihydroisobenzofuran-5-carbonitrile] | 6.4 | 40 | – | – |
| CCN(CCCCc1c[nH]c2ccc(F)cc12)CCCC1(c2ccc(F)cc2)OCc2cc(C#N)ccc21 (stereo not shown) [Compound 12v, 1-[3-[[4-(5-Fluoro-1H-indol-3-yl)butyl]ethylamino]propyl]-1-(4-fluorophenyl)-1,3-dihydroisobenzofuran-5-carbonitrile] | 39 | 12 | – | – |
| CCN(CCCC1(c2ccc(F)cc2)OCc2cc(C#N)ccc21)CCc1c[nH]c2c(Cl)cccc12 (stereo not shown) [Compound 12s, 1-[3-[[2-(7-Chloro-1H-indol-3-yl)ethyl]ethylamino]propyl]-1-(4-fluorophenyl)-1,3-dihydroisobenzofuran-5-carbonitrile] | 7.7 | 18 | – | – |
| N#Cc1ccc2c(c1)COC2(CCCN1CCC(c2c[nH]c3cc(Cl)ccc23)CC1)c1ccc(F)cc1 (stereo not shown) [Compound 2o, 1-[3-[4-(6-chloro-1H-Indol-3-yl)piperidinyl]propyl]-1-(4fluorophenyl)-1,3-dihydroisobenzofuran-5-carbonitrile] | 12 | – | – | – |
| C=CCN(CCCc1c[nH]c2c(F)cccc12)CCCC1(c2ccc(F)cc2)OCc2cc(C#N)ccc21 (stereo not shown) [Compound 13e, 1-[3-[[3-(7-Fluoro-1H-indol-3-yl)propyl](prop-2-en-1-yl)amino]propyl]-1-(4-fluorophenyl)-1,3-dihydroisobenzofuran-5-carbonitrile] | 22 | 27 | – | – |
| C=CCN(CCCC1(c2ccc(F)cc2)OCc2cc(C#N)ccc21)CCc1cc(OC)ccc1OC (stereo not shown) [Compound 4f, 1-[3-[[2-(2,5-Dimethoxyphenyl)ethyl](prop-2-en-1-yl)amino]propyl]-1-(4-fluorophenyl)-1,3-dihydroisobenzofuran-5-carbonitrile] | 1.6 | – | 4 | – |
| CN(CCCC1(c2ccc(F)cc2)OCc2cc(C#N)ccc21)CCc1c[nH]c2c(F)cccc12 (stereo not shown) [Compound 12b, 1-[3-[[2-(7-Fluoro-1H-indol-3-yl)ethyl]methylamino]propyl]-1-(4-fluorophenyl)-1,3-dihydroisobenzofuran-5-carbonitrile] | – | – | – | 43 |
| N#Cc1ccc2c(c1)COC2(CCCN(CCOc1ccccc1)CCc1c[nH]c2c(F)cc(F)cc12)c1ccc(F)cc1 (stereo not shown) [Compound 13v, 1-[3-[[2-(5,7-Difluoro-1H-indol-3-yl)ethyl](2-phenoxyethyl)amino]propyl]-1-(4-fluorophenyl)-1,3-dihydroisobenzofuran-5-carbonitrile] | 23 | – | – | – |
| CC(C)c1ccc2[nH]cc(CCN(CCCC3(c4ccc(F)cc4)OCc4cc(C#N)ccc43)CCOc3ccccc3)c2c1 (stereo not shown) [Compound 13x, 1-[3-[(2-Phenoxyethyl)[2-[5-(2-propyl)-1H-indol-3-yl]ethyl]amino]propyl]-1-(4-fluorophenyl)-1,3-dihydroisobenzofuran-5-carbonitrile] | 26 | – | – | – |
| N#Cc1ccc2c(c1)COC2(CCCN(CCOc1ccccc1)CCc1c[nH]c2ccc(F)cc12)c1ccc(F)cc1 (stereo not shown) [Compound 13r, 1-[3-[[2-(5-Fluoro-1H-indol-3-yl)ethyl](2-phenoxyethyl)amino]propyl]-1-(4-fluorophenyl)-1,3-dihydroisobenzofuran-5-carbonitrile] | 8.9 | – | – | – |
| C=CCN(CCCc1c[nH]c2ccc(Cl)cc12)CCCC1(c2ccc(F)cc2)OCc2cc(C#N)ccc21 (stereo not shown) [Compound 13k, 1-[3-[[3-(5-Chloro-1H-indol-3-yl)propyl](prop-2-en-1-yl)amino]propyl]-1-(4-fluorophenyl)-1,3-dihydroisobenzofuran-5-carbonitrile] | 19 | – | – | – |
| COc1ccccc1N1CCN(CCCC2(c3ccc(F)cc3)OCc3cc(C#N)ccc32)CC1 (stereo not shown) [Compound 2a, 1-(4-Fluorophenyl)-1-[3-[4-(2-methoxyphenyl)piperazinyl]propyl]-1,3-dihydroisobenzofuran-5-carbonitrile] | 1 | – | – | – |
| C=CCN(CCCc1cccc(OC)c1)CCCC1(c2ccc(F)cc2)OCc2cc(C#N)ccc21 (stereo not shown) [Compound 4l] | – | – | 27 | – |
| N#Cc1ccc2c(c1)COC2(CCCN(CCCc1c[nH]c2ccc(F)cc12)CCOc1ccccc1)c1ccc(F)cc1 (stereo not shown) [Compound 13u, 1-[3-[[3-(5-Fluoro-1H-indol-3-yl)propyl](2-phenoxyethyl)amino]propyl]-1-(4-fluorophenyl)-1,3-dihydroisobenzofuran-5-carbonitrile] | 22 | – | – | – |
| Cc1ccc2[nH]cc(CCCN(CCCC3(c4ccc(F)cc4)OCc4cc(C#N)ccc43)CCOc3ccccc3)c2c1 (stereo not shown) [Compound 13t, 1-[3-[[3-(5-Methyl-1H-indol-3-yl)propyl](2-phenoxyethyl)amino]propyl]-1-(4-fluorophenyl)-1,3-dihydroisobenzofuran-5-carbonitrile] | 23 | – | – | – |
| C#CCN(CCCc1c[nH]c2ccccc12)CCCC1(c2ccc(F)cc2)OCc2cc(C#N)ccc21 (stereo not shown) [Compound 4u, 1-[3-[[3-(1H-Indol-3-yl)propyl](prop-2-yl-1-yl)amino]propyl]-1-(4-fluorophenyl)-1,3-dihydroisobenzofuran-5-carbonitrile] | – | – | 44 | – |
| Cc1ccc2[nH]cc(CCN(CCCC3(c4ccc(F)cc4)OCc4cc(C#N)ccc43)CCOc3ccccc3)c2c1 (stereo not shown) [Compound 13q, 1-[3-[[2-(5-Methyl-1H-indol-3-yl)ethyl](2-phenoxyethyl)amino]propyl]-1-(4-fluorophenyl)-1,3dihydroisobenzofuran-5-carbonitrile] | 12 | – | – | – |
| COc1ccccc1OCCCN(C)CCCC1(c2ccc(F)cc2)OCc2cc(C#N)ccc21 (stereo not shown) [Compound 4m] | – | – | 74 | – |

Reference: patent US6492374B2, “Benzofuran derivatives, their preparation and use” (H. Lundbeck A/S, priority 1998, dated 2002)
